How the values were obtained:
[1] = tested on: trypsin; test: In vitro inhibition of trypsin induced proteolysis; type: biochemical; settings: bovine albumin substrate, no = no action under the experimental conditions
Method: Serine proteases are implicated in the pathophysiology of inflammatory diseases and trypsin is well known years ago [66]. Trypsin has been associated with host defense reactions and tissue damage. In this study, the novel derivatives have been evaluated towards trypsin and thrombin. Compounds 8 and 9 present high activity.
The Kunitz method was used after modification using bovine albumin was used as substrate for trypsin. In this assay, first 200 μL of 0.075 mg/mL trypsin and 780 μL of phosphate buffer pH 7.6 including the tested compounds (20 μL in DMSO, final concentration 100 μM) were pre-incubated at 37 °C for 20 min and then added 1 mL of albumin (stock solution 6 g/100 mL in phosphate buffer 0.1 M, pH 7.6) and incubated at 37 °C for 30 min. Secondly 1mLof 5% trichloroacetic acid was added to the incubated solution to stop the enzyme’s reaction and allowed to set at room temperature for 1 h. Then the solution was filtered, and the absorption of the filtrate was measured at 280 nm using salicylic acid as a reference compound [61] (Table 3).

[2] = molecular target: T1, soybean lipoxygenase (Glycine max, UniProt P08170); test: Soybean lipoxygenase inhibition in vitro; type: biochemical; settings: sodium linoleate substrate, no = no action under the experimental conditions; for inhibition at 100 µM: read-out: LOX (% Inhibition 100 µM)
T1 construct: purchased Sigma Chemical, Co. (St. Louis)
T1 sequence (P08170 1-839): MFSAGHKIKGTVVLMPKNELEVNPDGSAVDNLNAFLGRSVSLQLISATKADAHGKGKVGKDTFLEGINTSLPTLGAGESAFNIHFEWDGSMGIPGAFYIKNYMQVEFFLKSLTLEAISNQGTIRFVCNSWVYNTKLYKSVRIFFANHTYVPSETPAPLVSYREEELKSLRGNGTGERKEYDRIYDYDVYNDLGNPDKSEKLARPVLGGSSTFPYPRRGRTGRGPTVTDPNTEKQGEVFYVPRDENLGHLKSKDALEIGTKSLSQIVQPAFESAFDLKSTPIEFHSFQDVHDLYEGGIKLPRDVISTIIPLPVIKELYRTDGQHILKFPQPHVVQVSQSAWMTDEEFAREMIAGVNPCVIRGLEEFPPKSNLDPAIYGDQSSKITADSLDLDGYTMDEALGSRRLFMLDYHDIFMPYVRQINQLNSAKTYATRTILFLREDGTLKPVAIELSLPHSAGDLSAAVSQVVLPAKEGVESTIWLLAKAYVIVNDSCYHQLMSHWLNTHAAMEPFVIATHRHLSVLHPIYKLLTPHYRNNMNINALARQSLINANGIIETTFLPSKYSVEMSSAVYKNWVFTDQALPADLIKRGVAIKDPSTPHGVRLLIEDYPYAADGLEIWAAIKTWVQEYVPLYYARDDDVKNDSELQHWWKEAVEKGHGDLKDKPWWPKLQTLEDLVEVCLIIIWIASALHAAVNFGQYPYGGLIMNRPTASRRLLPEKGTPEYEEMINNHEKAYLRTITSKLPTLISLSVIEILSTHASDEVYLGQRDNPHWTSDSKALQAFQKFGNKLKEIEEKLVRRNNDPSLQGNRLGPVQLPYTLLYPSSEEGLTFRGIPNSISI
Method: Thus, we used soybean LOX in our in vitro experiments.
In vitro study was performed as reported previously by our group. Sodium linoleate (0.1 mM) and 0.2 mL of enzyme solution (1/9 × 104 w/v in saline) were used for the incubation of the tested derivatives.

[3] = Experimental lipophilicity as RM values by RPTLC; type: physicochemical; parameters: key: RM = log[(1/Rf) − 1], from Rf values by RPTLC; settings: methanol/water 70/30, 24 °C, average of at least 5 measurements
Description: Lipophilicity is a physicochemical parameter indicating the relationship of a drug to its biological activity. It affects ligand-target binding interactions, solubility, ADME (absorption, distribution, bioavailability, metabolism, and elimination) and toxicological effects. RPTLC (reverse phase thin layer chromatography) method was used for the experimental determination, as RM values. The RPTLC method is considered a secure, rapid and appropriate method for expressing the lipophilic character of a compound (Table 1).
Reversed phase TLC (RPTLC) was performed on silica gel plates impregnated with 5% (v/v) liquid paraffin in light petroleum ether. The mobile phase was a methanol/water mixture (70/30, v/v). The plates were developed in closed chromatography tanks saturated with the mobile phase at 24 °C. Spots were detected under UV light. Five individual measurements of Rf values were recorded and used for the determination of RM using the equation RM = log [(1/Rf) − 1] [59, 60, 62] (Table 2).

[4] = Superoxide anion radical scavenging activity (PMS/NADPH/NBT); type: biochemical; settings: 100 μM (stated for compound 3)
Method: The compounds have been tested to scavenge superoxide anion radicals. However, no results were recorded under the experimental conditions.
The superoxide anion producing system was set up by mixing PMS, NADPH, and air oxygen. The production of superoxide anion was estimated by the nitrobluetetrazole NBT method. The reaction mixture containing compounds, 3 μM PMS, 78 μM NADPH, and 25 μM NBT in […] phosphate buffer pH 7.4 was incubated for 2 min at room temperature and the absorption was measured at 560 nm against a blank containing PMS. The tested compounds were pre-incubated for 2 min before adding NADPH. Caffeic acid was used as an appropriate standard (76%).

SMILES | melting point [°C] | Iptr% 100 µM (inhibition of trypsin induced proteolysis) [1] | inhibition at 100 µM [2] [%] | RM (±SD) [3] | LOX (% Inhibition 100 µM) [2] | superoxide anion scavenging activity [4] [%]
O=C1C(=Cc2ccc(OCc3ccc(Br)cc3)cc2)C(=O)c2ccccc21 [Compound 8, (Z)-2-(4-((4-bromobenzyl)oxy)benzylidene)-1H-indene-1,3(2H)-dione] | 222 to 224 | 85% | 3.6 |  |  | 
CC(C)(C)c1cc(C=C2C(=O)c3ccccc3C2=O)c(O)c(C(C)(C)C)c1 [Compound 9, (Z)-2-(3,5-di-tert-butyl-2-hydroxybenzylidene)-1H-indene-1,3(2H)-dione] | 52 to 54 | 98% |  | −1.038 ± 0 | no | 
O=C1C(=Cc2c[nH]c3ccccc23)C(=O)c2ccccc21 [Compound 12, (Z)-2-((1H-indol-3-yl)methylene)-1H-indene-1,3(2H)-dione] | 283 to 285 | do not present any activity and no | 58.9 | −0.134 ± 0.02 |  | 
CC(C)(C)c1cc(C=C2C(=O)c3ccccc3C2=O)cc(C(C)(C)C)c1O [Compound 10, (Z)-2-(3,5-di-tert-butyl-4-hydroxybenzylidene)-1H-indene-1,3(2H)-dione] | 98 to 100 | do not present any activity and no |  | −0.103 ± 0 | no | 
Cc1ccsc1C=C1C(=O)c2ccccc2C1=O [Compound 2, (Z)-2-((3-methylthiophen-2-yl)methylene)-1H-indene-1,3(2H)-dione] | 171 to 172 | do not present any activity and no | 45 | 0.031 ± 0 |  | 
CN(C)c1ccc(/C=C\C=C2C(=O)c3ccccc3C2=O)cc1 [Compound 6, (Z)-2-(3-(4-(dimethylamino)phenyl)allylidene)-1H-indene-1,3(2H)-dione] | 85 to 87 | 29% | 17.7 | −0.527 ± 0 |  | 
Cc1ccc(C=C2C(=O)c3ccccc3C2=O)o1 [Compound 3, (Z)-2-((5-methylfuran-2-yl)methylene)-1H-indene-1,3(2H)-dione] |  | 17% | 35.7 | 0.014 ± 0 |  | 20
O=C1C(=Cc2cccc(Oc3ccccc3)c2)C(=O)c2ccccc21 [Compound 7, (Z)-2-(3-phenoxybenzylidene)-1H-indene-1,3(2H)-dione] | 143 to 145 | 33% | 67.3 | −0.196 ± 0.02 |  | 
O=C1C(=Cc2ccccc2)C(=O)c2ccccc21 [Compound 4, 2-benzylidene-1H-indene-1,3(2H)-dione] |  | 4% | 35 | −0.615 ± 0.02 |  | 
